How the values were obtained:
[1] = test system: BAF3 LMNA-TRKA^WT; assay: Cell proliferation assay (CellTiter-Glo), BAF3 LMNA-TRKA WT; format: cell-based; settings: Mus musculus, 72 hours
Protocol: The following method was used to determine the effects of the compounds of the present invention on cell proliferation. BAF3 cells were purchased from National Infrastructure of Cell Line Resource (Beijing Headquarter). For TRKA, BAF3 cells were used to construct […] stable cell lines of BAF3 LMNA-TRKA^WT and BAF3 LMNA-TRKA^G667C.The above […] cell lines were used to determine the inhibition of the compounds on cell activities. The cells were cultured in an RPMI 1640 medium containing 10% fetal bovine serum, 100 U penicillin and 100 µg/mL streptomycin. The cells were cultured in a 5% CO2 incubator at 37°C. The activities of the cells were determined by CellTiter-Glo® Luminescent Cell Viability Assay kit (Promega, article number: G7573).
The experimental methods were operated according to the steps in the kit instruction, and were briefly described as follows: a test compound was first dissolved in DMSO to prepare a storage solution, and then diluted in gradient with the corresponding cell culture medium to prepare a test sample. A final concentration of the compound ranged from 1 µM to 0.15 nM. […] After the culture, 50 µL of CellTiter-Glo detection solution was added to each well, shaken for 5 minutes, and then stood for 10 minutes, and the luminescence values of each well were read on the microplate reader using a Luminance mode. […]

[2] = biological target: T1, ALK(G1202R) (Homo sapiens, UniProt Q9UM73, G1202R); assay: HTRF KinEASE-TK kinase activity inhibition assay, ALK(G1202R); format: biochemical; settings: ATP 10 µM
T1 construct: purchased SignalChem A19-12HG-10
Text: The following method was used to determine the inhibition degrees of the compounds of the present invention on the activities of recombinant human ALK(G1202R) and ALK(L1196M, G1202R) kinases in vitro. In this method, HTRF®KinEASE-TK tyrosine kinase kit (article No. 62TK0PEB) of Cisbio company was used, the principle of the kit was based on time-resolved fluorescence resonance energy transfer (TF-FRET), and the inhibitions of the compounds on the activities of the ALK(G1202R) and ALK(L1196M, G1202R) kinases were reflected by determining a phosphorylation degree of a biotinylated polypeptide substrate mediated by ALK kinase. For detailed experimental operation, please refer to the kit instruction. […]
The experimental flow was briefly described as follows: a test compound was first dissolved in DMSO to prepare a storage solution, and then diluted in gradient with a buffer provided in the kit. […] An ATP Km value concentration of each ALK protein was determined by using an ATP solution diluted in gradient (Sangon Biotech (Shanghai) Co., Ltd., A600311). […] After incubation, fluorescence intensity values of each well at an excitation wavelength of 304 nm, and emission wavelengths of 620 nm and 665 nM were determined in a TF-FRET mode on a microplate reader, and the fluorescence intensity ratio 665/620 of each hole was calculated. […]

T1 sequence (Q9UM73 19-1620 G1202R): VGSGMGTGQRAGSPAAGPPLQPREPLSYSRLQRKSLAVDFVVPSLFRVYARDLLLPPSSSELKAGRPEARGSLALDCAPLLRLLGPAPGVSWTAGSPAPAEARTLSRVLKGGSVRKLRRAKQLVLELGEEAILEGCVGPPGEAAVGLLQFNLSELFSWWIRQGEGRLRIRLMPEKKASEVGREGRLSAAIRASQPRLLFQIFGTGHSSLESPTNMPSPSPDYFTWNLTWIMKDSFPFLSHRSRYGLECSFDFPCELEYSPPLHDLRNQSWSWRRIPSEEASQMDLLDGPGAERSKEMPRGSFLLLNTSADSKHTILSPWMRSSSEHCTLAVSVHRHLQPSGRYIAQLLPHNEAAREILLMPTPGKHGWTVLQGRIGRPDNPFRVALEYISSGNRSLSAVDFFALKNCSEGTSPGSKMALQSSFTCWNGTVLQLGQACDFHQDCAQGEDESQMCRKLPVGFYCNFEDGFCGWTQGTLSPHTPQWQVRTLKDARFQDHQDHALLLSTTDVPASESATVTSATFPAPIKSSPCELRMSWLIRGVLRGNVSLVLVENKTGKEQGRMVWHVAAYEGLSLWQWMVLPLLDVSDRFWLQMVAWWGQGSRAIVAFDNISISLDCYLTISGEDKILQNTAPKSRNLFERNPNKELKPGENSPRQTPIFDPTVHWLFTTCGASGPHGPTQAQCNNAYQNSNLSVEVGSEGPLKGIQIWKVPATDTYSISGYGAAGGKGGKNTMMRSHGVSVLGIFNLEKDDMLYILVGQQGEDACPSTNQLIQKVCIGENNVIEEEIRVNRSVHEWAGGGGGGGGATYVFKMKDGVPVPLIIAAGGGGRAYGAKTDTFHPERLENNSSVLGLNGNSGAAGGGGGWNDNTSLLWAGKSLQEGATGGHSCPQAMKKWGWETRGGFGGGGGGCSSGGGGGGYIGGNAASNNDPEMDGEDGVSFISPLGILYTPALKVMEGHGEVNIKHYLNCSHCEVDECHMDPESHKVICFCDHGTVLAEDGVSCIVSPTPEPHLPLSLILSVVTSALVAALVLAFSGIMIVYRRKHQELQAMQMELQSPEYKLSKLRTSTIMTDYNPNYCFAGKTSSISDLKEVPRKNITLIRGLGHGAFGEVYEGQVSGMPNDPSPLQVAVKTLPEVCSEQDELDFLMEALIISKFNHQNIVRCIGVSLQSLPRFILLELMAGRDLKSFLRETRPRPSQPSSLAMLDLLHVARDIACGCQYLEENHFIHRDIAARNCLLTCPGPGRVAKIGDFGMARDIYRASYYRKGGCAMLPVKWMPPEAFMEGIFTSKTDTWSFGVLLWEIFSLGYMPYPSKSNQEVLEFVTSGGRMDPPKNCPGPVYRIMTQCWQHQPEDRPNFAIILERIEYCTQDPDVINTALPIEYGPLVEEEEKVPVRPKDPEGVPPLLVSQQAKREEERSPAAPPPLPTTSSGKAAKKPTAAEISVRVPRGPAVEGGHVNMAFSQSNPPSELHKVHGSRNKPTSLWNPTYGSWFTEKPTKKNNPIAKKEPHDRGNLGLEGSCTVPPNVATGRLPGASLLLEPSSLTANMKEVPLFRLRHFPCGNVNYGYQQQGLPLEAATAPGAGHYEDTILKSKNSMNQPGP

IC50 [1] [nM] | IC50 [2] [nM] | SMILES
1.2 | 13.6 | C[C@H]1Nc2ccn3nc(N)c(c3n2)C(=O)NC[C@@]2(C)Cc3cc(F)cc1c3O2 [Example 25, (3R,11R)-16-amino-6-fluoro-3,11-dimethyl-10-oxa-2,13,17,18,21-pentaazapentacyclo[13.5.2.1^8,11.0^4,9. 0^18,22]tricosa-1(21),4,6,8,15(22),16,19-heptaen-14-one]
1.5 | 13.2 | C[C@H]1Nc2ccn3ncc(c3n2)C(=O)NC[C@@]2(C)Cc3cc(F)cc1c3O2 [Example 8, (3R,11R)-6-fluoro-3,11-dimethyl-10-oxa-2,13,17,1 8,21-pentaazapentacyclo[13.5.2.1^8,11.0^4,9.0^18,22]tric osa-1(21),4,6,8,15(22),16,19-heptaen-14-one]

— patent EP3974434B1, “MACROLIDE DERIVATIVES, PREPARATION METHOD AND APPLICATION THEREOF” (Zhejiang Hisun Pharmaceutical Co., Ltd., priority 2019, dated 2020)
